Experimental data published in patent US9850225B2, “Compounds useful as immunomodulators” (BRISTOL-MYERS SQUIBB COMPANY, priority 2014, dated 2017).

Each compound was assayed against PD-1/PD-L1 interaction (PD-1-Ig / PD-L1-His) (Homo sapiens (Human), UniProt Q9NZQ7) (assay: PD-1/PD-L1 Homogenous Time-Resolved Fluorescence (HTRF) binding assay). Conditions: PD-1/PD-L1 HTRF binding assay; numeric value; read-out: Range or IC50.
Method in brief: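 HTRF detection used 1 nM europium-cryptate anti-Ig and 20 nM APC anti-His. Compounds first saw 10 nM PD-L1-His for 15 min, and 20 nM PD-1-Ig was then added for another 15 min. Buffer was dPBS plus 0.1% BSA and 0.05% Tween-20. All concentrations are final.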

Chain of PD-1/PD-L1 interaction (PD-1-Ig / PD-L1-His) (Q9NZQ7 other isoform, or with tags, fused parts or gaps): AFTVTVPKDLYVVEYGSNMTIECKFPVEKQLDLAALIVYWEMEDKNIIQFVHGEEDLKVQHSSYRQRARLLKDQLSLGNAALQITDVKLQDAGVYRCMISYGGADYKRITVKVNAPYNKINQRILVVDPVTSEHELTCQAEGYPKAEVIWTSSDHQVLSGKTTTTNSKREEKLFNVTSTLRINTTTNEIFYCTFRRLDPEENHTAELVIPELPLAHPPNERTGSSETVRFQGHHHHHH

| IC50 [nM] | Structure (SMILES) |
| --- | --- |
| 1.88 | Cc1cc(CN2CCCC[C@@H]2C(=O)O)c(OCc2cncc(C#N)c2)cc1OCc1cccc(-c2ccc3c(c2)OCCO3)c1C [Example 1288, (R)-1-(2-((5-cyanopyridin-3-yl)methoxy)-4-(3-(2,3-dihydrobenzo[b][1,4]dioxin-6-yl)-2-methylbenzyloxy)-5-methylbenzyl)piperidine-2-carboxylic acid] |

Same assay, conditions: PD-1/PD-L1 HTRF binding assay; value given as range class; read-out: Range or IC50

| Structure (SMILES) | IC50 [nM] |
| --- | --- |
| Cc1cc(CN[C@@](C)(CO)C(=O)O)c(OCc2cccnc2)cc1OCc1cccc(-c2ccc3c(c2)OCCO3)c1C [Example 1280, (S)-2-((4-((3-(2,3-dihydrobenzo[b][1,4]dioxin-6-yl)-2-methylbenzyl)oxy)-5-methyl-2-(pyridin-3-ylmethoxy)benzyl)amino)-3-hydroxy-2-methylpropanoic acid] | 0.6 to 10 |
| Cc1cc(CN[C@](C)(CO)C(=O)O)c(OCc2cccnc2)cc1OCc1cccc(-c2ccc3c(c2)OCCO3)c1C [Example 1281, (R)-2-((4-((3-(2,3-dihydrobenzo[b][1,4]dioxin-6-yl)-2-methylbenzyl)oxy)-5-methyl-2-(pyridin-3-ylmethoxy)benzyl)amino)-3-hydroxy-2-methylpropanoic acid] | 0.6 to 10 |
| CC(=O)NCCNCc1cc(C)c(OCc2cccc(-c3ccc4c(c3)OCCO4)c2C)cc1OCc1cncc(C#N)c1 [Example 1282, N-(2-(2-((5-cyanopyridin-3-yl)methoxy)-4-(3-(2,3-dihydrobenzo[b][1,4]dioxin-6-yl)-2-methylbenzyloxy)-5-methylbenzylamino)ethyl)acetamide] | 0.6 to 10 |
| Cc1cc(CNC[C@@H](O)CC(=O)O)c(OCc2cncc(C#N)c2)cc1OCc1cccc(-c2ccc3c(c2)OCCO3)c1C [Example 1283, (S)-4-(2-((5-cyanopyridin-3-yl)methoxy)-4-(3-(2,3-dihydrobenzo[b][1,4]dioxin-6-yl)-2-methylbenzyloxy)-5-methylbenzylamino)-3-hydroxybutanoic acid] | 0.6 to 10 |
| Cc1cc(CN[C@@H](CO)C(=O)O)c(OCc2cncc(C#N)c2)cc1OCc1cccc(-c2ccc3c(c2)OCCO3)c1C [Example 1284, (S)-2-(2-((5-cyanopyridin-3-yl)methoxy)-4-(3-(2,3-dihydrobenzo[b][1,4]dioxin-6-yl)-2-methylbenzyloxy)-5-methylbenzylamino)-3-hydroxypropanoic acid] | 0.6 to 10 |
| CC(=O)NCCNCc1cc(C)c(OCc2cccc(-c3ccc4c(c3)OCCO4)c2C)cc1OCCCCC#N [Example 1294, N-(2-(2-(4-cyanobutoxy)-4-(3-(2,3-dihydrobenzo[b][1,4]dioxin-6-yl)-2-methylbenzyloxy)-5-methylbenzylamino)ethyl)acetamide] | 10 to 100 |
| Cc1cc(CNC[C@@H](O)CC(=O)O)c(OCCCCC#N)cc1OCc1cccc(-c2ccc3c(c2)OCCO3)c1C [Example 1295, (S)-4-(2-(4-cyanobutoxy)-4-(3-(2,3-dihydrobenzo[b][1,4]dioxin-6-yl)-2-methylbenzyloxy)-5-methylbenzylamino)-3-hydroxybutanoic acid] | 0.6 to 10 |
| Cc1cc(CN2CCCC[C@H]2C(=O)O)c(OCCCCC#N)cc1OCc1cccc(-c2ccc3c(c2)OCCO3)c1C [Example 1296, (S)-1-(2-(4-cyanobutoxy)-4-(3-(2,3-dihydrobenzo[b][1,4]dioxin-6-yl)-2-methylbenzyloxy)-5-methylbenzyl)piperidine-2-carboxylic acid] | 10 to 100 |
| Cc1cc(CN[C@@](C)(CO)C(=O)O)c(OCCCCC#N)cc1OCc1cccc(-c2ccc3c(c2)OCCO3)c1C [Example 1297, (S)-2-(2-(4-cyanobutoxy)-4-(3-(2,3-dihydrobenzo[b][1,4]dioxin-6-yl)-2-methylbenzyloxy)-5-methylbenzylamino)-3-hydroxy-2-methylpropanoic acid] | 0.6 to 10 |

Further lines, results first:

| IC50 [nM] | Structure (SMILES) |
| --- | --- |
| 0.6 to 10 | Cc1cc(CN2CCCC[C@H]2C(=O)O)c(OCc2cncc(C#N)c2)cc1OCc1cccc(-c2ccc3c(c2)OCCO3)c1C [Example 1285, (S)-1-(2-((5-cyanopyridin-3-yl)methoxy)-4-(3-(2,3-dihydrobenzo[b][1,4]dioxin-6-yl)-2-methylbenzyloxy)-5-methylbenzyl)piperidine-2-carboxylic acid] |
| 0.6 to 10 | Cc1cc(CN[C@@](C)(CO)C(=O)O)c(OCc2cncc(C#N)c2)cc1OCc1cccc(-c2ccc3c(c2)OCCO3)c1C [Example 1286, (S)-2-(2-((5-cyanopyridin-3-yl)methoxy)-4-(3-(2,3-dihydrobenzo[b][1,4]dioxin-6-yl)-2-methylbenzyloxy)-5-methylbenzylamino)-3-hydroxy-2-methylpropanoic acid] |
| 0.6 to 10 | Cc1cc(CN[C@](C)(CO)C(=O)O)c(OCc2cncc(C#N)c2)cc1OCc1cccc(-c2ccc3c(c2)OCCO3)c1C [Example 1287, (R)-2-(2-((5-cyanopyridin-3-yl)methoxy)-4-(3-(2,3-dihydrobenzo[b][1,4]dioxin-6-yl)-2-methylbenzyloxy)-5-methylbenzylamino)-3-hydroxy-2-methylpropanoic acid] |
| 0.6 to 10 | CCc1cc(CNCCNC(C)=O)c(OCc2cccc(C#N)c2)cc1OCc1cccc(-c2ccc3c(c2)OCCO3)c1C [Example 1289, N-(2-(2-(3-cyanobenzyloxy)-4-(3-(2,3-dihydrobenzo[b][1,4]dioxin-6-yl)-2-methylbenzyloxy)-5-ethylbenzylamino)ethyl)acetamide] |
| 0.6 to 10 | CCc1cc(CN[C@@](C)(CO)C(=O)O)c(OCc2cccc(C#N)c2)cc1OCc1cccc(-c2ccc3c(c2)OCCO3)c1C [Example 1290, (S)-2-(2-(3-cyanobenzyloxy)-4-(3-(2,3-dihydrobenzo[b][1,4]dioxin-6-yl) -2-methylbenzyloxy)-5-ethylbenzylamino)-3-hydroxy-2-methylpropanoic acid] |
| 0.6 to 10 | CCc1cc(CN[C@](C)(CO)C(=O)O)c(OCc2cccc(C#N)c2)cc1OCc1cccc(-c2ccc3c(c2)OCCO3)c1C [Example 1291, (R)-2-(2-(3-cyanobenzyloxy)-4-(3-(2,3-dihydrobenzo[b][1,4]dioxin-6-yl)-2-methylbenzyloxy)-5-ethylbenzylamino)-3-hydroxy-2-methylpropanoic acid] |
| 0.6 to 10 | C=Cc1cc(CNCCNC(C)=O)c(OCc2cccc(C#N)c2)cc1OCc1cccc(-c2ccc3c(c2)OCCO3)c1C [Example 1292, N-(2-(2-(3-cyanobenzyloxy)-4-(3-(2,3-dihydrobenzo[b][1,4]dioxin-6-yl)-2-methylbenzyloxy)-5-vinylbenzylamino)ethyl)acetamide] |
| 0.6 to 10 | C=Cc1cc(CN2CCCC[C@H]2C(=O)O)c(OCc2cccc(C#N)c2)cc1OCc1cccc(-c2ccc3c(c2)OCCO3)c1C [Example 1293, (S)-1-(2-(3-cyanobenzyloxy)-4-(3-(2,3-dihydrobenzo[b][1,4]dioxin-6-yl) -2-methylbenzyloxy)-5-vinylbenzyl)piperidine-2-carboxylic acid] |
| 0.6 to 10 | Cc1c(COc2cc(OCc3cncc(C#N)c3)c(CN3CCCC[C@H]3C(=O)O)cc2Br)cccc1-c1ccccc1 [Example 1298, (S)-1-(5-bromo-2-((5-cyanopyridin-3-yl)methoxy)-4-((2-methylbiphenyl-3-yl)methoxy)benzyl)piperidine-2-carboxylic acid] |
| 0.6 to 10 | CC(=O)NCCNCc1cc(Br)c(OCc2cccc(-c3ccc4c(c3)OCCO4)c2C)cc1OCc1cccc(C#N)c1 [Example 1299, N-(2-((5-bromo-2-((3-cyanobenzyl)oxy)-4-((3-(2,3-dihydrobenzo[b][1,4]dioxin-6-yl)-2-methylbenzyl)oxy)benzyl)amino)ethyl)acetamide] |
